The target of one assay is P97 (Homo sapiens (Human), UniProt P55072). Nature of the assay: P97 Biomolgreen ATPase assay, 200 μM ATP.
Chain of P97 (P55072 whole entry): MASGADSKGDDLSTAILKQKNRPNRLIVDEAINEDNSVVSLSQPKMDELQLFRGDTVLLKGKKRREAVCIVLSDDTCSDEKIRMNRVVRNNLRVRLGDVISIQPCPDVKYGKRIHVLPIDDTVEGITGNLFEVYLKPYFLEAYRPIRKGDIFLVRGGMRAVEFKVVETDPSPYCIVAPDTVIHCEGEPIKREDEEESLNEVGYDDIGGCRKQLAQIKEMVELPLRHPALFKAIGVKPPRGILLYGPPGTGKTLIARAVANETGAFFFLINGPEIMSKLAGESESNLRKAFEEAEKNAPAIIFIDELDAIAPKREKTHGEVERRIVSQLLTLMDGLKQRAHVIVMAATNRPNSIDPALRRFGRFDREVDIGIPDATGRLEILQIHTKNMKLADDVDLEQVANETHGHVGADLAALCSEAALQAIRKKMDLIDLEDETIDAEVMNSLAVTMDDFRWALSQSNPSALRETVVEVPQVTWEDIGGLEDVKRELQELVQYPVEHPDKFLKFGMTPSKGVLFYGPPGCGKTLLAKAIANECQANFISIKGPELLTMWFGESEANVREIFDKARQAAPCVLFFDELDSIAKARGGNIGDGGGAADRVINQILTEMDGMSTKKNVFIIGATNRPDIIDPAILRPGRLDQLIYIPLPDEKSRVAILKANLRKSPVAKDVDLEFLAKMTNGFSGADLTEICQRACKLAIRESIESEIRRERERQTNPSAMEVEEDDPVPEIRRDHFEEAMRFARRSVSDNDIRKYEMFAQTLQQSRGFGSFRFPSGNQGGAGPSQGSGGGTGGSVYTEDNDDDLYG
Settings: not given
The format is biochemical.
As for `CCC(=O)NCC#Cc1ccc(OCc2nnc(SCC3CO3)n2-c2cccnc2)cc1C` (stereo not drawn) [Compound 129], the “P97 Biomolgreen; 200 μM ATP; IC50 (μM)” value is reported as “not active”. Consider `CCC(=O)NCC#Cc1ccc(OCc2nnc(SC[C@@]3(C)CO3)n2-c2cccnc2)cc1C` [Compound 130], for which the “P97 Biomolgreen; 200 μM ATP; IC50 (μM)” value is given as “not active”.

The same assay, now with this note: P97 Biomolgreen, IC50 (μM).
Compound `[2H]C1([2H])C([2H])([2H])C([2H])([2H])C([2H])(Sc2nnc(CNc3ccc(C#CCO)c(C)c3)n2-c2cccnc2)C1([2H])[2H]` [Compound 117] displayed an IC50 of 0.99 µM. Still for that read-out and setting: the figure for `[2H]C1([2H])C([2H])([2H])C([2H])([2H])C([2H])(Sc2nnc(COc3cc(F)c(C#CCO)cc3F)n2-c2cccnc2)C1([2H])[2H]` [Compound 123] is 0.021 µM. For `[2H]C1([2H])C([2H])([2H])C([2H])([2H])C([2H])(Sc2nnc(COc3cc(F)c(C#CCOC(=O)NC4CCN(C)CC4)cc3F)n2-c2cccnc2)C1([2H])[2H]` [Compound 124], the 50% inhibitory concentration (IC50) was 0.01 µM. `[2H]C1([2H])C([2H])([2H])C([2H])([2H])C([2H])(Sc2nnc(COc3ccc(C#CCOC(=O)NC4CCN(C)CC4)c(C)c3)n2-c2cccnc2)C1([2H])[2H]` [Compound 125]: the IC50 turned out to be 0.016 µM. On the same count and under the same terms, the figure for `[2H]C1([2H])C([2H])([2H])C([2H])([2H])C([2H])(Sc2nnc(COc3ccc(C#CCOC(=O)NC4CCN(C)CC4)c(F)c3)n2-c2cccnc2)C1([2H])[2H]` [Compound 126] is 0.016 µM; for `[2H]C1([2H])C([2H])([2H])C([2H])([2H])C([2H])(Sc2nnc(COc3ccc(C#CCOC(=O)OCC#Cc4ccc(OCc5nnc(SC6([2H])C([2H])([2H])C([2H])([2H])C([2H])([2H])C6([2H])[2H])n5-c5cccnc5)cc4C)c(C)c3)n2-c2cccnc2)C1([2H])[2H]` [Compound 133] it is 0.91 µM.

Staying with this assay, now noted: read-out: P97 Biomolgreen, IC50.
Regarding `N#Cc1cc(OCc2nnc(SC3C=CCCC3)n2-c2cccnc2)ccc1C#CCO` (stereo not drawn) [Compound 115], the half-maximal inhibitory concentration (IC50) is 0.1 µM. Same read-out and setting: then `COc1cc(C#CCO)c(F)cc1OCc1nnc(SC2C=CCCC2)n1-c1cccnc1` (stereo not drawn) [Compound 116], with 0.04 µM; and `CN1CCC(NC(=O)OCC#Cc2ccc(OCc3nnc(SC4C=CCCC4)n3-c3cccnc3)c(F)c2F)CC1` (stereo not drawn) [Compound 118], with 0.017 µM. The same measure, in the same setting: then `CN1CCC(NC(=O)OCC#Cc2c(F)cc(OCc3nnc(SC4C=CCCC4)n3-c3cccnc3)cc2F)CC1` (stereo not drawn) [Compound 120], with 0.012 µM; and `COc1cc(C#CCOC(=O)NC2CCN(C)CC2)c(F)cc1OCc1nnc(SC2C=CCCC2)n1-c1cccnc1` (stereo not drawn) [Compound 122], with 0.019 µM; and `C#Cc1ccc(OCc2nnc(SC3C=CCCC3)n2-c2cccnc2)cc1C` (stereo not drawn) [Compound 127], with 0.038 µM. The same measure, in the same setting: then `Cc1cc(OCc2nnc(SCC3CC3)n2-c2cccnc2)ccc1C#CCO` [Compound 128], with 0.13 µM; and `C=CCSc1nnc(COc2ccc(C#CCNC(=O)CC)c(C)c2)n1-c1cccnc1` [Compound 131], with 0.33 µM; and `CCC(=O)NCC#Cc1ccc(OCc2nnc(SCC(=O)CCl)n2-c2cccnc2)cc1C` [Compound 132], with 2.77 µM.

In the case of `Cc1cc(OCc2nnc(SC3C=CCCC3)n2-c2cccnc2)ccc1C#CCNC(=O)NCC#Cc1ccc(OCc2nnc(SC3C=CCCC3)n2-c2cccnc2)cc1C` (stereo not drawn) [Compound 134], the IC50 turned out to be 0.25 µM.

Values taken from patent publication US10894782B2, “Modulators of P97 AAA ATPase activity” (University of Pittsburgh—Of the Commonwealth System of …, priority 2016, dated 2021).
